US6727206B2, “Substituted aryl ketones” (Bayer Aktiengesellschaft, priority 1999, dated 2004)
Where two headings read alike, the source gives them in different places.

Assays:
weeds [1] = assay: Post-emergence test, activity against weeds; format: in vivo; details: test plants of 5 to 15 cm sprayed, rated after three weeks
Source text: (§1) After three weeks, the degree of damage to the plants is rated in % damage in comparison to the development of the untreated control.

weeds [2] = assay: Pre-emergence test, activity against weeds; format: in vivo; details: soil sprayed 24 hours after sowing, rated after three weeks
Source text: (§2) Seeds of the test plants are sown in normal soil.
as §1

[3] = tested on: crop plants, such as cotton, maize, soya and wheat; assay: Pre-emergence test, tolerance by crop plants; format: in vivo; details: rated after three weeks
Source text: as §2, §1

[4] = tested on: crop plants, such as maize; assay: Post-emergence test, tolerance by crop plants; format: in vivo; details: rated after three weeks
Source text: as §1

[5] = logP determination by HPLC on reversed-phase column (C 18), EEC directive 79/831 Annex V.A8; format: physicochemical; details: for logP: Table 1; label a): acidic range
Method: Temperature: 43° C. (a) Mobile phases for the determination in the acidic range: 0.1% aqueous phosphoric acid, acetonitrile; linear gradient of 10% acetonitrile to 90% acetonitrile—the corresponding data in Table 1 are labelled ^a). (b) Mobile phases for the determination in the neutral range: 0.01 molar aqueous phosphate buffer solution, acetonitrile, linear gradient from 10% acetonitrile to 90% acetonitrile—the corresponding data in Table 1 are labelled ^b).

[6] = 0.1% aqueous phosphoric acid/acetonitrile gradient, 43° C.

| SMILES | logP [5, 6] | further results |
| --- | --- | --- |
| Cn1c(C(S)c2c(Cl)ccc(C(=O)C3C(=O)CCCC3=O)c2Cl)n[nH]c1=O (stereo not shown) | – | melting point: 187 °C |
| CCn1ncc(C(=O)c2ccc(Sc3n[nH]c(=O)n3C)cc2Cl)c1O | – | melting point: 216 °C |
| Cn1c(Sc2cc(C(F)(F)F)ccc2C(=O)C2C(=O)CCCC2=O)n[nH]c1=O [Example 1, 2-[2-[(4-methyl-5-oxo-4,5-dihydro-1H-1,2,4-triazol-3-yl)-sulphanyl]-4-trifluoromethyl-benzoyl]-1,3-cyclohexanedione] | – | activity against weeds (degree of damage) (weeds [1]): strong activity; activity against weeds (degree of damage) (weeds [2]): strong activity; tolerance by crop plants [3]: tolerated well; tolerance by crop plants [4]: tolerated well; chromatographic logP ([5]; reversed-phase HPLC column (C 18), Example 1, mobile phase range not labelled, read-out: log P): 2 |
| Cn1nc(Sc2ccc(C(=O)C3C(=O)CCCC3=O)c(Cl)c2)n(C)c1=O [Example 6] | logP = 2.08^a) | – |
| Cc1nn(C)c(O)c1C(=O)c1ccc(Sc2nn(C)c(=O)n2C)cc1Cl [Example 9] | logP = 1.34^a) | – |
| Cn1nc(S(=O)(=O)c2ccc(C(=O)C3C(=O)CCCC3=O)c(Cl)c2)n(C)c1=O [Example 13] | logP = 2.09^a) | – |
| Cn1c(S(=O)(=O)c2ccc(C(=O)C3C(=O)CCCC3=O)c(Cl)c2)n[nH]c1=O [Example 14] | logP = 1.88^a) | – |
| Cn1nc(Sc2cc(C(F)(F)F)ccc2C(=O)C2C(=O)CCCC2=O)n(C)c1=O [Example 15] | – | activity against weeds (degree of damage) (weeds [1]): strong activity; activity against weeds (degree of damage) (weeds [2]): strong activity; tolerance by crop plants [3]: tolerated well; tolerance by crop plants [4]: tolerated well |
| Cn1nc(SCc2c(Cl)ccc(C(=O)C3C(=O)CCCC3=O)c2Cl)n(C)c1=O [Example 20] | logP = 2.24^a) | – |
| Cn1c([S+]([O-])Cc2c(Cl)ccc(C(=O)C3C(=O)CCCC3=O)c2Cl)n[nH]c1=O (stereo not shown) [Example 22, 2-[2,4-dichloro-3-[(4-methyl-5-oxo-4,5-dihydro-1H-1,2,4-triazol-3-yl)-sulphinylmethyl]-benizoyl]-1,3-cyclohexanedione] | – | chromatographic logP ([5]; reversed-phase HPLC column (C 18); Table 1; label a): acidic range, 0.1% aqueous phosphoric acid/acetonitrile gradient, 43° C.): 1.6 |
| Cn1nc(S(=O)(=O)Cc2c(Cl)ccc(C(=O)C3C(=O)CCCC3=O)c2Cl)n(C)c1=O [Example 23] | logP = 2.09^a) | – |
| Cn1c(S(=O)(=O)Cc2c(Cl)ccc(C(=O)C3C(=O)CCCC3=O)c2Cl)n[nH]c1=O [Example 25] | logP = 1.87^a) | – |
| Cn1c([S+]([O-])Cc2c(Cl)ccc(C(=O)C3C(=O)CCCC3=O)c2Cl)n[nH]c1=O (stereo not shown) [Example 28] | logP = 1.61^a) | – |
| CCn1nc(Sc2ccc(C(=O)C3C(=O)CCCC3=O)c(Cl)c2)n(C)c1=O [Example 47] | logP = 2.34^a) | – |
| CCCn1nc(Sc2ccc(C(=O)C3C(=O)CCCC3=O)c(Cl)c2)n(C)c1=O [Example 49] | logP = 2.63^a) | – |
| C=CCn1nc(Sc2ccc(C(=O)C3C(=O)CCCC3=O)c(Cl)c2)n(C)c1=O [Example 51] | logP = 2.47^a) | – |
| C#CCn1nc(Sc2ccc(C(=O)C3C(=O)CCCC3=O)c(Cl)c2)n(C)c1=O [Example 53] | logP = 2.37^a) | – |
| Cn1c(Sc2ccc(C(=O)C3C(=O)CCCC3=O)c(Cl)c2)nn(CC2CC2)c1=O [Example 55] | logP = 2.72^a) | – |
| Cn1c(Sc2ccc(C(=O)C3C(=O)CCCC3=O)c(Cl)c2)nn(Cc2ccccc2)c1=O [Example 57] | logP = 3.04^a) | – |
| Cn1nc(S(=O)(=O)c2cc(C(F)(F)F)ccc2C(=O)C2C(=O)CCCC2=O)n(C)c1=O [Example 68] | logP = 1.85^a) | – |
| CCn1ncc(C(=O)c2ccc(C(F)(F)F)cc2S(=O)(=O)c2nn(C)c(=O)n2C)c1O [Example 69] | logP = 1.72^a) | – |
| Cn1nc([S+]([O-])Cc2cc(C(F)(F)F)ccc2C(=O)C2C(=O)CCCC2=O)n(C)c1=O (stereo not shown) [Example 70] | logP = 1.95^a) | – |
| CCn1ncc(C(=O)c2ccc(C(F)(F)F)cc2C[S+]([O-])c2nn(C)c(=O)n2C)c1O (stereo not shown) [Example 71] | logP = 1.77^a) | – |
| Cn1nc(SCc2cc(C(F)(F)F)ccc2C(=O)O)n(C)c1=O [II-9, 2-[(4,5-dihydro-1,4-dimethyl-5-oxo-1H-1,2,4-triazol-3-yl)-sulphanylmethyl]-4-trifluoromethyl-benzoic acid] | – | chromatographic logP ([5]; reversed-phase HPLC column (C 18), Table 2 (starting materials of formula II); label a): acidic range): 1.94 |
